The values below come from ChEMBL document CHEMBL4507257, “Data for DCP probe ABT-100” (2021).

The target of data set [1] is Protein farnesyltransferase (Bos taurus, UniProt P29702+P49355). As to the kind of experiment: Scintillation proximity assay (SPA). The format is protein-complex assay.
Data set [2] has as its target Vasopressin V1a receptor (Homo sapiens) (UniProt P37288). As to the kind of experiment: V1a (h) Ligand binding assay. Particulars: Compound concentration 10.0 uM; call rule not given here.
Data set [3] concerns the target C-X-C chemokine receptor type 1 (Homo sapiens) (UniProt P25024). The experiment in a line: IL-8A (h) (CXCR1) Ligand binding assay. Particulars: Compound concentration 10.0 uM.
The target of data set [4] is Sodium-dependent noradrenaline transporter (Homo sapiens) (UniProt P23975). The experiment in a line: NE uptake (h) Ligand binding assay.
Data set [5] deals with Galanin receptor type 1 (Homo sapiens) (UniProt P47211). The experiment in a line: GALI (h) Ligand binding assay. As to conditions: Compound concentration 10.0 uM.
Data set [6] has as its target Endothelin-1 receptor (Homo sapiens) (UniProt P25101). The experiment in a line: ETA (h) Ligand binding assay. Particulars: Compound concentration 10.0 uM.
The target in data set [7] is Vasoactive intestinal polypeptide receptor 1 (Homo sapiens) (UniProt P32241). The experiment in a line: VIP1 (h) Ligand binding assay.
Data set [8] deals with Muscarinic acetylcholine receptor M3 (Homo sapiens) (UniProt P20309). The experiment in a line: M3 (h) Ligand binding assay. Particulars: Compound concentration 10.0 uM.
The target in data set [9] is T1, Muscarinic acetylcholine receptor M4 (Homo sapiens) (UniProt P08173).
T1 sequence (whole entry): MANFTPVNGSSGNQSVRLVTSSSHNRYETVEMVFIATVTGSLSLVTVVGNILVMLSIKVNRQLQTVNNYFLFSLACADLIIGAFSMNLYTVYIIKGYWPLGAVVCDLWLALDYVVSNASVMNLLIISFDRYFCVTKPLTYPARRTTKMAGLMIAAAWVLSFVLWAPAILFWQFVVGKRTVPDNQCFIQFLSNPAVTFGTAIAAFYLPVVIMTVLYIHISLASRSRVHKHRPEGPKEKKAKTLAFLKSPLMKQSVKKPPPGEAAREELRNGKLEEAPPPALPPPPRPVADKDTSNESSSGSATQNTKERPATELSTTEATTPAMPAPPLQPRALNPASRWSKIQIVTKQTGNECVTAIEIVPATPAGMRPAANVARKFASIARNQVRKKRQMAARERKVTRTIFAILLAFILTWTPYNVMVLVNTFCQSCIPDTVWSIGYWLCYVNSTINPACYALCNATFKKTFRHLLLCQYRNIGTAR
As to the kind of experiment: M4 (h) Ligand binding assay. As to conditions: Compound concentration 10.0 uM.

Data set [10] concerns the target Tumor necrosis factor (Homo sapiens) (UniProt P01375). As to the kind of experiment: TNF-alpha (h) Ligand binding assay. Particulars: Compound concentration 10.0 uM.
Data set [11] addresses C-C chemokine receptor type 1 (Homo sapiens) (UniProt P32246). As to the kind of experiment: CCR1 (h) Ligand binding assay. Particulars: Compound concentration 10.0 uM.
Data set [12] addresses G protein-coupled receptor kinase 3 (Homo sapiens, UniProt P35626). As to the kind of experiment: Inhibition of GRK3 at compound concentration of 10.0 uM using the ScanMax (DiscoverX).
Data set [13] deals with Type-1 angiotensin II receptor (Homo sapiens) (UniProt P30556). As to the kind of experiment: AT1 (h) Ligand binding assay. Particulars: Compound concentration 10.0 uM.
Data set [14] concerns the target Adenosine receptor A2a (Homo sapiens) (UniProt P29274). The experiment in a line: A2a (h) Ligand binding assay. As to conditions: Compound concentration 10.0 uM.
Data set [15] has as its target Adenosine receptor A3 (Homo sapiens) (UniProt P0DMS8). The experiment in a line: A3 (h) Ligand binding assay. As to conditions: Compound concentration 10.0 uM.
Data set [16] can be described thus: GABA (non selective) Ligand binding assay. Particulars: Compound concentration 10.0 uM.
In data set [17] the target is Cyclin-dependent kinase 7 (Homo sapiens, UniProt P50613). The experiment in a line: Inhibition of CDK7 at compound concentration of 10.0 uM using the ScanMax (DiscoverX).
Data set [18] concerns the target P2X receptor (Rattus norvegicus) (UniProt P51579+P49653+P51578+Q64663+P47824+P51577+P49654). The experiment in a line: P2X Ligand binding assay. The format is protein assay. Particulars: Compound concentration 10.0 uM.
The target in data set [19] is Sodium-dependent dopamine transporter (Homo sapiens) (UniProt Q01959). The experiment in a line: DA uptake (h) Ligand binding assay.
Data set [20] concerns the target Substance-K receptor (Homo sapiens) (UniProt P21452). As to the kind of experiment: NK2 (h) Ligand binding assay.
Data set [21] addresses T2, 5-hydroxytryptamine receptor 3A (Homo sapiens) (UniProt P46098).
T2 sequence (whole entry): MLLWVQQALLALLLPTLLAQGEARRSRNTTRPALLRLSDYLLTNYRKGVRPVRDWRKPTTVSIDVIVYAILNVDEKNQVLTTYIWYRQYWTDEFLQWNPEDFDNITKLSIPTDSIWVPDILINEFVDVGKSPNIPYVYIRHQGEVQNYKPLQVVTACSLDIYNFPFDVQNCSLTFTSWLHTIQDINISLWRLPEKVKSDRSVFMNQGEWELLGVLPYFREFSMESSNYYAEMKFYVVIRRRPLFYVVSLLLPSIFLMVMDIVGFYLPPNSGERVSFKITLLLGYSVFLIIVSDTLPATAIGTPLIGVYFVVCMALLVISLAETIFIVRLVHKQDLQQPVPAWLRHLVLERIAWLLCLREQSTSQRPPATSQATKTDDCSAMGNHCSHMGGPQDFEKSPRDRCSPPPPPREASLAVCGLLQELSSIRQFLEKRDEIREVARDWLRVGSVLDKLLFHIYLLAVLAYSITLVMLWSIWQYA
As to the kind of experiment: 5-HT3 (h) Ligand binding assay. Particulars: Compound concentration 10.0 uM.

For data set [22], the target named is voltage-dependent potassium channel (Homo sapiens, UniProt O43525+O43526+O95259+P16389+P17658+P22001+P22459+P22460+P48547+P51787+P56696+Q03721+Q09470+Q12809+Q14003+Q14721+Q16322+Q6PIU1+Q8NCM2+Q8TAE7+Q8TDN1+Q8TDN2+Q92953+Q96KK3+Q96L42+Q96PR1+Q96RP8+Q9BQ31+Q9H252+Q9H3M0+Q9NR82+Q9NS40+Q9NSA2+Q9NZV8+Q9UIX4+Q9UJ96+Q9UK17+Q9ULD8+Q9ULS6+Q9UQ05). The experiment in a line: K+ channel (Volt-dependent) Ligand binding assay. The format is protein assay. As to conditions: compound concentration 10 uM.

Data set [23] addresses T3, D(4) dopamine receptor (Homo sapiens) (UniProt P21917).
T3 sequence (whole entry): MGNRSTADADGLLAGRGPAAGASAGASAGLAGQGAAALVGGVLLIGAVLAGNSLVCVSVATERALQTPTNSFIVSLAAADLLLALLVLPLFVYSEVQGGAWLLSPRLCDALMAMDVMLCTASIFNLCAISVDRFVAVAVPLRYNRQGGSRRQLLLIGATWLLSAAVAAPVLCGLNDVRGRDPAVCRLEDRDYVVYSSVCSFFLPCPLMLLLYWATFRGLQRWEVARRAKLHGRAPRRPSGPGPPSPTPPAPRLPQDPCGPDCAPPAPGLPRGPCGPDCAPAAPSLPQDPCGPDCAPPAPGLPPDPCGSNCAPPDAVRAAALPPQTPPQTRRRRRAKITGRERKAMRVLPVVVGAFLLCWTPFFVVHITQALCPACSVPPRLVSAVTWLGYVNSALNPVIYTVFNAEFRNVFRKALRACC
The experiment in a line: D4.4 (h) Ligand binding assay. Particulars: Compound concentration 10.0 uM.

Chain of Sodium-dependent dopamine transporter (Homo sapiens) (Q01959 whole entry): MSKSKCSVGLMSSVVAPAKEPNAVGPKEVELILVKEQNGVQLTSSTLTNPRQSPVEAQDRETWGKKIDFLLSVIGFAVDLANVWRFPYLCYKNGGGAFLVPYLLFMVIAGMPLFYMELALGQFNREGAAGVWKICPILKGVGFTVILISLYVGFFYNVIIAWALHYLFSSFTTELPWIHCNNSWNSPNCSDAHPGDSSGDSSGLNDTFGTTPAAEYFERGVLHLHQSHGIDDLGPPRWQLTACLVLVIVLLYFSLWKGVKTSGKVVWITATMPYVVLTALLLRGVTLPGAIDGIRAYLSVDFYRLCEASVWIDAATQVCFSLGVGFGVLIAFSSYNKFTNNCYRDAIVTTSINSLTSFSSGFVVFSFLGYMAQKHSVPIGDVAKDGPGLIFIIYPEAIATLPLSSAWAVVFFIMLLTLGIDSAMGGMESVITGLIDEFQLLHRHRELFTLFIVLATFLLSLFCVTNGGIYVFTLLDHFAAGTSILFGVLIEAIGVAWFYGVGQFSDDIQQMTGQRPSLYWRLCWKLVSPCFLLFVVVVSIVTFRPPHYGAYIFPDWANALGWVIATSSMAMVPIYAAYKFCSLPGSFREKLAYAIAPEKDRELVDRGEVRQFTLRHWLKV
Chain of Substance-K receptor (Homo sapiens) (P21452 whole entry): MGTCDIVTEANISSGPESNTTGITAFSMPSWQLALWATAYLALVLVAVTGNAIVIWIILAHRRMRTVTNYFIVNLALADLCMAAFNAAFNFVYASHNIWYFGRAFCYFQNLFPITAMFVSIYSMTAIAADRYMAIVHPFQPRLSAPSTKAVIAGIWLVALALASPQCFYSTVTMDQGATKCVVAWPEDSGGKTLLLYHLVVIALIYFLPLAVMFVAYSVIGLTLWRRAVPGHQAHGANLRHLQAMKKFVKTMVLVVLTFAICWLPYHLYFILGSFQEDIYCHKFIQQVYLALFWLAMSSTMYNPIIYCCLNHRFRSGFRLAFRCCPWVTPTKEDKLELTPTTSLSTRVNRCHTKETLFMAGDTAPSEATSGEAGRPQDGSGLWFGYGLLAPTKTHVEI
Chain of Vasoactive intestinal polypeptide receptor 1 (Homo sapiens) (P32241 whole entry): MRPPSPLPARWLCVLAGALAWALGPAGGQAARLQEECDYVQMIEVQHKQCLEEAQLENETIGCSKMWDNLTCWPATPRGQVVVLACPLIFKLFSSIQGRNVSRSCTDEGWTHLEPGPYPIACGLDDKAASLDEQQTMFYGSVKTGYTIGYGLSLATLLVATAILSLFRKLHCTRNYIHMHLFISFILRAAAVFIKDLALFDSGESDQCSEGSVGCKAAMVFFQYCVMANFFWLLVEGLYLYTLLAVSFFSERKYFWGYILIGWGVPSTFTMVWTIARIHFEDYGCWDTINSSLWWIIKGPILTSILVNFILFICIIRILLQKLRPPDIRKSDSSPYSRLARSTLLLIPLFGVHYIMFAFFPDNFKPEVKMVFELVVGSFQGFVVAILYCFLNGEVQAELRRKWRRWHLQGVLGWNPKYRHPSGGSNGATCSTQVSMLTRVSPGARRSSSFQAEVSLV
Chain of Sodium-dependent noradrenaline transporter (Homo sapiens) (P23975 whole entry): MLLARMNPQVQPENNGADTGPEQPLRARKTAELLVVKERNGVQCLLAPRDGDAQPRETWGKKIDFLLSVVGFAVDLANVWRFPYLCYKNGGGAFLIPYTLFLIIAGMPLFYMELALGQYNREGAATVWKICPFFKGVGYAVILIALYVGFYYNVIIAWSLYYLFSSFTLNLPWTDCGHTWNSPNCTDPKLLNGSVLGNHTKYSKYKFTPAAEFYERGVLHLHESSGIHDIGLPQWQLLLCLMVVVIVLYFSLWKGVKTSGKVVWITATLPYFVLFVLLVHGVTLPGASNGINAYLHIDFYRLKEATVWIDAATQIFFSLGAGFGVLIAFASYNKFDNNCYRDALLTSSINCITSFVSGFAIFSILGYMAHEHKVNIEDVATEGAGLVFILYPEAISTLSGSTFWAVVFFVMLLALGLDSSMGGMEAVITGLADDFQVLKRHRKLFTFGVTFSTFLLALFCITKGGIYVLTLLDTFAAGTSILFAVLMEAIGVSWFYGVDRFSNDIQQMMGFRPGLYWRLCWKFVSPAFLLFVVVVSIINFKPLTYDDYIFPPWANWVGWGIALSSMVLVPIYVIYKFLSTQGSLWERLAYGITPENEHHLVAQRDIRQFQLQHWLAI
Chain of C-C chemokine receptor type 1 (Homo sapiens) (P32246 whole entry): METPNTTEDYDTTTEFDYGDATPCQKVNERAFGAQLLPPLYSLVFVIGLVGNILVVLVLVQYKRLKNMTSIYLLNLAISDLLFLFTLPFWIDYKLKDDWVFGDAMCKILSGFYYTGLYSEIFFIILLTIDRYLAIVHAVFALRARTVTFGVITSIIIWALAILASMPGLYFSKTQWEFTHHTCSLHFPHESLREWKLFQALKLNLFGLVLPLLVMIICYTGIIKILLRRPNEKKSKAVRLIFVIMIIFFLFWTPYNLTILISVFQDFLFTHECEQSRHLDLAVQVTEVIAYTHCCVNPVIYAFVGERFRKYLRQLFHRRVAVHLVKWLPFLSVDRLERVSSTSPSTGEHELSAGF
Chain of Vasopressin V1a receptor (Homo sapiens) (P37288 whole entry, looked up): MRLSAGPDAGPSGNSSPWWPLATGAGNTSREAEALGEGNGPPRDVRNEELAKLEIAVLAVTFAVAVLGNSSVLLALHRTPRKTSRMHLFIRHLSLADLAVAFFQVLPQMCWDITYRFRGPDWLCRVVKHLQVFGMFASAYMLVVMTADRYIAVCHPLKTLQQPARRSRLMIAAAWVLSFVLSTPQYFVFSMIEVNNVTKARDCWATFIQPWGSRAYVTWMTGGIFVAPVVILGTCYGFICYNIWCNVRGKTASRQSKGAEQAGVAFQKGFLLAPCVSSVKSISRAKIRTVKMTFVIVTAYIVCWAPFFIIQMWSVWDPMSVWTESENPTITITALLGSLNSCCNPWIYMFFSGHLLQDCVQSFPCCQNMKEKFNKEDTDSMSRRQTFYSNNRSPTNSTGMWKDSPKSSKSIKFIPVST
Chain of Tumor necrosis factor (Homo sapiens) (P01375 whole entry): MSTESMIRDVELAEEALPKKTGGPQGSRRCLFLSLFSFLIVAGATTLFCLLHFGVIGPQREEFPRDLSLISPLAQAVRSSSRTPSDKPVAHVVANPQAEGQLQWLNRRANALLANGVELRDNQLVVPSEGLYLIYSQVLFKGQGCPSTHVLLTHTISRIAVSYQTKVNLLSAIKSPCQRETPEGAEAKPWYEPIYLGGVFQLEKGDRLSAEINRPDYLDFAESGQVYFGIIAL
Chain of G protein-coupled receptor kinase 3 (P35626 whole entry): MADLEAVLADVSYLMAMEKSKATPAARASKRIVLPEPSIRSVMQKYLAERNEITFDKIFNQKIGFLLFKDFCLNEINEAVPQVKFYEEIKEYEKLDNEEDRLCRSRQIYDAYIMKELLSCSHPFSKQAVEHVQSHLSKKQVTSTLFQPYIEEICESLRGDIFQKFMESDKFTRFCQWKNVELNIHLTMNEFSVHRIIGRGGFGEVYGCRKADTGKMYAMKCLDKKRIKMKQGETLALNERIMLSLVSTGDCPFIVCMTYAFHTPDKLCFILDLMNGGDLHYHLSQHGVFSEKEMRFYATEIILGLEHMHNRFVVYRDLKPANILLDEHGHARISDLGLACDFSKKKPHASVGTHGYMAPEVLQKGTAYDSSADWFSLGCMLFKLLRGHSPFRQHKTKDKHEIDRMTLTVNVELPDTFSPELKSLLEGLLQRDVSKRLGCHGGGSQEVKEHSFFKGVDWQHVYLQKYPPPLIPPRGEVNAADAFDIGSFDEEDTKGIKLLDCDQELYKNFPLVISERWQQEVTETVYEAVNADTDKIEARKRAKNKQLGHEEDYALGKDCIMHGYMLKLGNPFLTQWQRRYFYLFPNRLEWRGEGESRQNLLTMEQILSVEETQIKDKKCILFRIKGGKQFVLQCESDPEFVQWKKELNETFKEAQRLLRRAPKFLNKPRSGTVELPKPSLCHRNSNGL
Chain of Adenosine receptor A2a (Homo sapiens) (P29274 whole entry): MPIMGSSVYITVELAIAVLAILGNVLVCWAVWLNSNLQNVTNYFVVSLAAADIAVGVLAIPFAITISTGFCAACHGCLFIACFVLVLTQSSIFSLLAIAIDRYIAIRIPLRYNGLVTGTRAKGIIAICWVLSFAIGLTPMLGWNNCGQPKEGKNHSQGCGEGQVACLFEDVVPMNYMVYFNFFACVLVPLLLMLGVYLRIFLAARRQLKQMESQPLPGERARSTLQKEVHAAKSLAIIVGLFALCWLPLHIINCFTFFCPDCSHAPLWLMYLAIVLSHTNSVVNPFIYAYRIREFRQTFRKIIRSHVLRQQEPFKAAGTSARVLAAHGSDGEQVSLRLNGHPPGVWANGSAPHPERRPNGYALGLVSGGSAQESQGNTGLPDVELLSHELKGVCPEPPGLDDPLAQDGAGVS
Chain of C-X-C chemokine receptor type 1 (Homo sapiens) (P25024 whole entry): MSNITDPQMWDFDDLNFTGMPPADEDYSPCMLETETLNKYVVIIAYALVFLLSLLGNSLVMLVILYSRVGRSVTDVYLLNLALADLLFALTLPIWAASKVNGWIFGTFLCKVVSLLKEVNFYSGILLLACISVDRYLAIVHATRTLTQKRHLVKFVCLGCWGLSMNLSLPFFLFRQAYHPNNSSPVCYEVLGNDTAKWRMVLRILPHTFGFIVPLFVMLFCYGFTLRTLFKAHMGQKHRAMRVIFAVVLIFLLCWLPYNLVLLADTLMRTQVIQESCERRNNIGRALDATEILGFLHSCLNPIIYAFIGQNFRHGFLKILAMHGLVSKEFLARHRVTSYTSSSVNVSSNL
Chain of Cyclin-dependent kinase 7 (P50613 whole entry): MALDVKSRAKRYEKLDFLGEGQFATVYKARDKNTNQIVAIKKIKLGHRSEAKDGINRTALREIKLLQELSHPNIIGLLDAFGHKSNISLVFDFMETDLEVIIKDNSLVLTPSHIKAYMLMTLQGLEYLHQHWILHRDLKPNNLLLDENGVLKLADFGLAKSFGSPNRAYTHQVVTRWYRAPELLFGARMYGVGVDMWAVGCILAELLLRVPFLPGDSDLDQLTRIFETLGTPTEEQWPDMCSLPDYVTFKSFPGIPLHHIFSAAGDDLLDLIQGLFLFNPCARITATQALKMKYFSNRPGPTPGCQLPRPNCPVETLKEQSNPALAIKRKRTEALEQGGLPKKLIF

As to `Cn1cncc1[C@@](O)(COc1ccc(C#N)cc1-c1ccc(OC(F)(F)F)cc1)c1ccc(C#N)cc1` [A-108], the IC50 in data set [1] is > 0.1 µM (not active).

Turning to `Cn1cncc1[C@](O)(COc1ccc(C#N)cc1-c1ccc(OC(F)(F)F)cc1)c1ccc(C#N)cc1` [ABT-100], the inhibition in data set [2] was less than 10%; in data set [3], less than 10%; in data set [4] (Compound concentration 3.0 uM) it was 45%; in data set [4] (Compound concentration 10.0 uM), 74%; in data set [5], less than 10%; in [6], less than 10%. Also, the inhibition in data set [7] (Compound concentration 0.3 uM) was 23%; in data set [7] (Compound concentration 10.0 uM), 60%; in data set [8] it was less than 10%; in data set [9] it was less than 10%; in [10], 24%; in data set [11] it was less than 10%. In addition, the inhibition in data set [13] is less than 10%; in [14] it was less than 10%; in [15] it was less than 10%; in data set [16] it was less than 10%; in data set [18], less than 10%; in data set [19] (Compound concentration 1.0 uM), 21%. Also, the inhibition in [19] (Compound concentration 3.0 uM) is 41%; in [19] (Compound concentration 10.0 uM), 75%; in data set [20] (Compound concentration 3.0 uM) it was 32%; in [20] (Compound concentration 10.0 uM) it was 81%; in [21], 12%; in data set [23] it was less than 10%. Further, the equilibrium dissociation constant (Kd) in data set [12] and in data set [17] was > 10 µM (not active) each time. Moreover, in [22], the inhibition at 10 µM was < 10% (not active).

The term IC50 denotes the concentration that inhibits the measured activity by half. For orientation: inhibition means the drop in the measured response relative to a control, in per cent. As a reminder, the Kd is the equilibrium constant for the complex coming apart. Higher therefore signals weaker binding.
